Where “and” joins values, the source holds several entries; their conditions need not be identical. Equal entries are not always repeated.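 96-well plates; 48 h exposure; 5 concentrations. Endpoints by linear interpolation between flanking doses. Not reached: highest tested concentration assigned. Here, GI50 denotes the concentration required for 50% inhibition of growth.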 Calls of active or inactive are those of the source. Cut-off read from the data, not from the text of the source: active = GI50 up to about 1.1 µM and inactive = higher.
Experiments:
Assay in all cases: NCI-60 cell line screen, 48 h
SK-MEL-28 = system: SK-MEL-28
SF-539 = system: SF-539
ACHN = system: ACHN
TK-10 = system: TK-10
UACC-62 = system: UACC-62
OVCAR-3 = system: OVCAR-3
CAKI-1 = system: CAKI-1
OVCAR-5 = system: OVCAR-5
K562 = system: K562
MDA-N = system: MDA-N
SK-MEL-5 = system: SK-MEL-5
SNB-75 = system: SNB-75
SK-OV-3 = system: SK-OV-3
MCF7 = system: MCF7
SF-295 = system: SF-295
SW-620 = system: SW-620
NCI-H460 = system: NCI-H460
HOP-92 = system: HOP-92
IGROV-1 = system: IGROV-1
A498 = system: A498

Measured: GI50

N#CC(C#N)=Cc1ccc2c(c1)OC(Cl)O2 (stereo unspecified)
inactive: SK-MEL-28 19.9 µM | SF-539 20.4 µM | ACHN 19.9 µM | TK-10 29.6 µM | UACC-62 22.5 µM | OVCAR-3 22.1 µM | CAKI-1 > 100 µM | OVCAR-5 20.9 µM | K562 11.8 µM | MDA-N 16 µM | SK-MEL-5 19.1 µM | SNB-75 25.8 µM | SK-OV-3 28.5 µM | MCF7 24.4 µM | SF-295 19.3 µM | SW-620 > 10 µM

Cc1ccc(C(=O)N/N=C(\N=N\c2ccccc2)c2ccc(N(C)C)cc2)cc1
inactive: NCI-H460 > 100 µM | SK-MEL-28 > 100 µM | HOP-92 > 100 µM | SF-539 > 100 µM | TK-10 > 100 µM | UACC-62 67.8 µM | OVCAR-3 > 100 µM | CAKI-1 44.5 µM | OVCAR-5 > 100 µM | K562 52.2 µM | MDA-N 29.4 µM | SK-MEL-5 92 µM | SK-OV-3 > 100 µM | MCF7 48.8 µM | SF-295 > 100 µM | IGROV-1 > 100 µM | SW-620 > 100 µM

Cc1cc(OCc2nnc3n2N=C(c2cc(F)c(Cl)cc2Cl)/C(=C/c2ccc(Cl)cc2)S3)ccc1Cl
inactive: NCI-H460 25.9 µM | SK-MEL-28 19.8 µM | HOP-92 18.1 µM | SF-539 44.9 µM | ACHN 33.5 µM | TK-10 32.6 µM | OVCAR-3 30.5 µM | CAKI-1 18.6 µM | OVCAR-5 24.1 µM | K562 8.38 µM | MDA-N 32.4 µM | SK-MEL-5 17.9 µM | A498 24.2 µM | SK-OV-3 50.9 µM | MCF7 23.3 µM | SF-295 29.9 µM | IGROV-1 20.9 µM | SW-620 17.4 µM

O=c1cc(C(F)(F)F)c2cc3c(cc2o1)NCCC3
inactive: NCI-H460 > 100 µM | SK-MEL-28 > 100 µM | HOP-92 46.1 µM | SF-539 > 100 µM | ACHN > 100 µM | TK-10 > 100 µM | OVCAR-3 > 100 µM | CAKI-1 86.9 µM | OVCAR-5 > 100 µM | K562 > 100 µM | MDA-N > 100 µM | SK-MEL-5 78.3 µM | A498 > 100 µM | MCF7 3.16 µM | SF-295 35 µM | IGROV-1 97.3 µM | SW-620 > 100 µM

C=C(C(=O)O)[C@@H]1C[C@@H]2O[C@H]1[C@@H](O)[C@@H](C)CCCC(C)=CCC[C@@]2(C)O
inactive: NCI-H460 > 100 µM | SK-MEL-28 > 100 µM | HOP-92 > 100 µM and 99.8 µM | SF-539 87.5 µM | ACHN 90.6 µM | TK-10 > 100 µM and > 52.1 µM | UACC-62 > 100 µM and > 90.4 µM | OVCAR-3 > 100 µM and > 88.7 µM | OVCAR-5 > 100 µM | MDA-N 59.4 µM and 71.1 µM | SK-MEL-5 > 100 µM and > 91.6 µM | A498 > 100 µM | SNB-75 > 100 µM | SK-OV-3 > 100 µM | MCF7 46 µM and > 91.6 µM | SF-295 > 100 µM | IGROV-1 92.9 µM and > 75 µM | SW-620 39.8 µM and 58.1 µM

Cc1c(Cl)cccc1NC(=O)CC1Sc2ccccc2NC1=O (stereo unspecified)
inactive: NCI-H460 22.4 µM and 23.2 µM | HOP-92 17.7 µM and 33 µM | SF-539 17.9 µM and 20.9 µM | ACHN 23.7 µM and 23.5 µM | OVCAR-3 15.3 µM and 17.9 µM | CAKI-1 36.3 µM and 42.2 µM | OVCAR-5 48.9 µM and 51.8 µM | K562 6.59 µM and 6.53 µM | MDA-N 2.71 µM | SK-MEL-5 14.2 µM and 10.5 µM | A498 18.3 µM and 16.5 µM | SK-OV-3 16.4 µM and 19.3 µM | MCF7 11 µM | SF-295 37.5 µM and 21.9 µM

CN(C)c1ccc(C2CC(c3ccc4ccccc4c3O)=NN2c2ccc([N+](=O)[O-])cc2[N+](=O)[O-])cc1 (stereo unspecified)
inactive: NCI-H460 32.3 µM | SK-MEL-28 56 µM | HOP-92 > 100 µM | SF-539 50.9 µM | ACHN > 100 µM | TK-10 > 100 µM | UACC-62 14.3 µM | OVCAR-3 22 µM | CAKI-1 > 100 µM | OVCAR-5 > 100 µM | MDA-N 16.3 µM | A498 68.4 µM | SNB-75 > 100 µM | SK-OV-3 > 100 µM | MCF7 23.8 µM | SF-295 40.1 µM | IGROV-1 26.2 µM | SW-620 36.3 µM

CC(C)(C)OC(=O)Nc1nnc(S(N)(=O)=O)s1
inactive: NCI-H460 > 100 µM | SK-MEL-28 > 100 µM | HOP-92 > 100 µM | SF-539 > 100 µM | ACHN > 100 µM | TK-10 > 100 µM | UACC-62 > 100 µM | OVCAR-3 > 100 µM | CAKI-1 > 100 µM | OVCAR-5 > 100 µM | K562 > 100 µM | MDA-N > 100 µM | SK-MEL-5 > 100 µM | A498 > 100 µM | SK-OV-3 > 100 µM | MCF7 > 100 µM | SF-295 > 100 µM | SW-620 > 100 µM

CC(=O)C1C(=O)C(=O)N(c2cccc([N+](=O)[O-])c2)C1=O (stereo unspecified)
inactive: NCI-H460 > 100 µM | SK-MEL-28 > 100 µM | HOP-92 > 100 µM | SF-539 > 100 µM | ACHN > 100 µM | TK-10 > 100 µM | UACC-62 > 100 µM | OVCAR-3 > 100 µM | CAKI-1 > 100 µM | OVCAR-5 > 100 µM | MDA-N > 100 µM | SK-MEL-5 > 100 µM | SNB-75 > 100 µM | SK-OV-3 > 100 µM | MCF7 > 100 µM | SF-295 > 100 µM | IGROV-1 > 100 µM | SW-620 > 100 µM

O=c1c2cc(S(=O)(=O)Nc3ccccc3Cl)ccc2ncn1NS(=O)(=O)c1ccc(Br)cc1
inactive: NCI-H460 > 37.5 µM | SK-MEL-28 > 37.5 µM | HOP-92 > 37.5 µM | SF-539 > 37.5 µM | ACHN > 37.5 µM | TK-10 > 37.5 µM | UACC-62 > 37.5 µM | OVCAR-3 > 37.5 µM | CAKI-1 > 37.5 µM | OVCAR-5 > 37.5 µM | K562 17.8 µM | MDA-N > 37.5 µM | SNB-75 > 37.5 µM | SK-OV-3 > 37.5 µM | MCF7 > 37.5 µM | SF-295 > 37.5 µM | IGROV-1 > 37.5 µM | SW-620 > 37.5 µM

Cn1c(=O)c2nc(Nc3ccccc3)[nH]c2n(C)c1=O
inactive: SK-MEL-28 > 10 µM | HOP-92 > 10 µM | TK-10 > 10 µM | UACC-62 > 10 µM | CAKI-1 > 10 µM | K562 > 10 µM | MDA-N > 10 µM | SK-MEL-5 > 10 µM | SNB-75 > 10 µM | SK-OV-3 > 10 µM | MCF7 > 10 µM | SF-295 > 10 µM | IGROV-1 > 10 µM | SW-620 > 10 µM

CC1(C)C2CCC1(C)C(N/C(=C(/C(Cl)=C(Cl)Cl)[N+](=O)[O-])n1nnc3ccccc31)C2 (stereo unspecified)
inactive: NCI-H460 37.2 µM | SK-MEL-28 36.7 µM | SF-539 33.8 µM | ACHN 20.9 µM | UACC-62 20 µM | OVCAR-3 12.4 µM | CAKI-1 18.6 µM | OVCAR-5 29.2 µM | MDA-N 36.4 µM | A498 19.9 µM | SNB-75 28 µM | SK-OV-3 40 µM | MCF7 32.4 µM | SF-295 24.3 µM | SW-620 27.2 µM

CCC(=O)C(C(C)/C=C/CCSc1ccccc1)C(O)CCCCCC(=O)OC (stereo unspecified)
inactive: NCI-H460 > 100 µM | SK-MEL-28 > 100 µM | HOP-92 13.7 µM | SF-539 > 100 µM | ACHN > 100 µM | TK-10 > 100 µM | UACC-62 71.9 µM | OVCAR-3 > 100 µM | CAKI-1 67.5 µM | OVCAR-5 > 100 µM | K562 46.3 µM | MDA-N > 100 µM | SK-MEL-5 36.8 µM | SNB-75 > 100 µM | SK-OV-3 > 100 µM | MCF7 66.4 µM | SF-295 > 100 µM | IGROV-1 > 100 µM | SW-620 > 100 µM

COC(=O)C1=C(C(=O)NNc2ccccc2)N(c2cccnc2Cl)C(c2ccccc2)=CC1c1ccccc1 (stereo unspecified)
inactive: NCI-H460 65.2 µM | SK-MEL-28 48.2 µM | SF-539 72.4 µM | ACHN 76.7 µM | TK-10 54.6 µM | UACC-62 57.7 µM | OVCAR-3 31.7 µM | CAKI-1 56.5 µM | OVCAR-5 > 100 µM | K562 20 µM | MDA-N 20.5 µM | SK-MEL-5 34 µM | A498 > 100 µM | SNB-75 > 100 µM | SK-OV-3 > 100 µM | MCF7 34.9 µM | SF-295 19.6 µM | IGROV-1 > 100 µM | SW-620 31.6 µM

CCCCC1=C(C(=O)N2CCOCC2)C2(OCCO2)C1Cl (stereo unspecified)
inactive: SK-MEL-28 23 µM | HOP-92 50.2 µM | SF-539 16.4 µM | ACHN 20 µM | TK-10 29.9 µM | UACC-62 31.6 µM | CAKI-1 29.2 µM | OVCAR-5 19.4 µM | MDA-N 14.8 µM | SK-MEL-5 18.5 µM | A498 66.7 µM | SNB-75 30.2 µM | SK-OV-3 26 µM | MCF7 20 µM | SF-295 28.1 µM | IGROV-1 32.4 µM | SW-620 31 µM

Reference: ChEMBL document CHEMBL1201862, “PubChem BioAssay data set” (2004)
